Assay results reported in patent US20250170153A1, “METHODS FOR THE TREATMENT OF ANXIETY DISORDER” (ANANDA SCIENTIFIC, INC., priority 2022, published 2025).

Experiments:
[1] = rat, 120 mg/kg dose; cited from earlier work
[2] = Chemical characteristics of composition A′, concentrated and diluted forms; format: physicochemical
Procedure: Several tests were conducted to determine the chemical characteristics of composition A′, both in concentrated and diluted forms. […] All liquid nanodomain droplets range in size from 5 to 20 nm. The pH of both the concentrate and diluted formulations is between 6.0 and 7.5.

**Q.** Which results are given for `C=C(C)[C@@H]1CCC(C)=C[C@H]1c1c(O)cc(CCCCC)cc1O` [CBD, 2-(1R,6R)-3-methyl-6-prop-1-en-2-ylcyclohex-2-en-1-yl-5-pentylbenzene-1,3-diol]?
**A.** T1/2 [1]: 4 to 5 h; logP [2]: 6; Association of CBD with formulation phases during storage ([2]; both concentrated and diluted forms of composition A′): remained associated with the surfactant and lipid phases
